Laboratory results reported in ChEMBL document CHEMBL1177812, “Hydroxysafflor Yellow A suppresses thrombin generation and inflammatory responses following focal cerebral ischemia-reperfusion in rats” (2010).
Activity calls are given as the source filed them. The rule behind the calls is not given here.

Tests used:
[1] = test system: Rattus norvegicus; assay: Neuroprotective activity against ischemia reperfusion injury in Wistar rat assessed as […] 1+2 at 8 mg/kg, iv by enzyme immunoassay (RVb = 1.97 +/- 0.44 ug/L); format: functional
[2] = test system: Rattus norvegicus; assay: Neuroprotective activity against ischemia reperfusion injury in Wistar rat assessed as thrombin-antithrombin complex at 2 mg/kg, iv by enzyme immunoassay (RVb = 3.45 +/- 0.57 ug/L); format: functional
[3] = test system: Rattus norvegicus; assay: Neuroprotective activity against ischemia reperfusion injury in Wistar rat assessed as thrombin-antithrombin complex at 4 mg/kg, iv by enzyme immunoassay (RVb = 3.45 +/- 0.57 ug/L); format: functional
[4] = test system: Rattus norvegicus; assay: Neuroprotective activity against ischemia reperfusion injury in Wistar rat assessed as […] 1+2 at 4 mg/kg, iv by enzyme immunoassay (RVb = 1.97 +/- 0.44 ug/L); format: functional
[5] = test system: Rattus norvegicus; assay: Neuroprotective activity against ischemia reperfusion injury in Wistar rat assessed as […] 1+2 at 2 mg/kg, iv by enzyme immunoassay (RVb = 1.97 +/- 0.44 ug/L); format: functional
[6] = test system: Rattus norvegicus; assay: Neuroprotective activity against ischemia reperfusion injury in Wistar rat assessed as thrombin-antithrombin complex at 8 mg/kg, iv by enzyme immunoassay (RVb = 3.45 +/- 0.57 ug/L); format: functional
[7] = test system: Rattus norvegicus; assay: Neuroprotective activity against ischemia reperfusion injury in Wistar rat assessed as factor 7 level at 4 mg/kg, iv by amidolytic method (RVb = 1.24 +/- 0.34 mg/L); format: functional
[8] = test system: Rattus norvegicus; assay: Neuroprotective activity against ischemia reperfusion injury in Wistar rat assessed as factor 7 level at 8 mg/kg, iv by amidolytic method (RVb = 1.24 +/- 0.34 mg/L); format: functional
[9] = test system: Rattus norvegicus; assay: Neuroprotective activity against ischemia reperfusion injury in Wistar rat assessed as factor 7 level at 2 mg/kg, iv by amidolytic method (RVb = 1.24 +/- 0.34 mg/L); format: functional
[10] = test system: Rattus norvegicus; assay: Neuroprotective activity against ischemia reperfusion injury in Wistar rat assessed as fibrinogen level at 8 mg/kg, iv by polymerization time method (RVb = 1.45 +/- 0.35 g/L); format: functional
[11] = test system: Rattus norvegicus; assay: Neuroprotective activity against ischemia reperfusion injury in Wistar rat assessed as fibrinogen level at 4 mg/kg, iv by polymerization time method (RVb = 1.45 +/- 0.35 g/L); format: functional
[12] = test system: Rattus norvegicus; assay: Neuroprotective activity against ischemia reperfusion injury in Wistar rat assessed as fibrinogen level at 2 mg/kg, iv by polymerization time method (RVb = 1.45 +/- 0.35 g/L); format: functional
[13] = test system: Rattus norvegicus; assay: Neuroprotective activity against ischemia reperfusion injury in Wistar rat hippocampal formation assessed as reduction in prothrombin mRNA level at 2 to 8 mg/kg, iv; format: functional, organism-based; settings: Hippocampus
[14] = test system: Rattus norvegicus; assay: Neuroprotective activity in Wistar rat assessed as ischemia reperfusion injury-induced plasma angiotensin level at 2 to 8 mg/kg, iv by radioimmunoassay; format: functional, organism-based
[15] = test system: Rattus norvegicus; assay: Antiinflammatory activity in Wistar rat assessed as reduction in ischemia reperfusion injury-induced ICAM1 protein expression at 2 to 8 mg/kg, iv by Western blotting; format: functional, organism-based
[16] = test system: Rattus norvegicus; assay: Antiinflammatory activity in Wistar rat assessed as reduction in ischemia reperfusion injury-induced ICAM1 mRNA expression at 2 to 8 mg/kg, iv by RT-PCR; format: functional, organism-based
[17] = test system: Rattus norvegicus; assay: Antiinflammatory activity in Wistar rat brain assessed as reduction in ischemia reperfusion injury-induced MPO activity at 2 to 8 mg/kg, iv; format: functional, organism-based
[18] = test system: Rattus norvegicus; assay: Antiinflammatory activity in Wistar rat brain assessed as inhibition of ischemia reperfusion injury-induced NF-kappaB nuclear translocation at 2 to 8 mg/kg, iv; format: functional, organism-based
[19] = test system: Rattus norvegicus; assay: Antiinflammatory activity in Wistar rat hippocampus assessed as reduction in ischemia reperfusion injury-induced IkappaB alpha protein expression at 2 to 8 mg/kg, iv by Western blotting; format: functional, organism-based
[20] = test system: Rattus norvegicus; assay: Antiinflammatory activity in Wistar rat brain assessed as inhibition of ischemia reperfusion injury-induced p65 subunit binding to DNA at 2 to 8 mg/kg, iv by EMSA; format: functional, organism-based

With `O=C(/C=C/c1ccc(O)cc1)C1=C(O)C(O)([C@@H]2O[C@H](CO)[C@@H](O)[C@H](O)[C@H]2O)C(O)=C([C@@H]2O[C@H](CO)[C@@H](O)[C@H](O)[C@H]2O)C1=O` (stereo not given in full) [HYDROXYSAFFLOR YELLOW A] the Activity [1] was 0.54 µg/L, the Activity [2] was 2.39 µg/L and the Activity [3] was 1.89 µg/L. It also gave an Activity [4] of 0.8 µg/L, an Activity [5] of 1.38 µg/L and an Activity [6] of 1.48 µg/L. It also gave an Activity [7] of 1.19 mg/L, an Activity [8] of 1.01 mg/L and an Activity [9] of 1.21 mg/L. It also gave an Activity [10] of 1.55 g/L, an Activity [11] of 1.9 g/L and an Activity [12] of 2.06 g/L. The Activity [13] was “Active”, the Activity [14] was “Active” and the Activity [15] was “Active”. For the same molecule, the Activity [16] was “Active”, the Activity [17] was “Active” and the Activity [18] was “Active”. The Activity [19] was “Active” and the Activity [20] was “Active”.
